Here are results for one molecule from paper PMC4961418, “A Selective Irreversible Inhibitor of Furin Does Not Prevent Pseudomonas Aeruginosa Exotoxin A-Induced Airway Epithelial Cytotoxicity” (PLoS ONE, 2016).

Molecules are shown by their SMILES. Side chains are listed from the residue outwards. Peptide text beside a SMILES is read from it. * marks the point of attachment. Biotin = O=C1N[C@H]2[C@H](CS[C@H]2CCCCC(=O)*)N1; X1 = N=C(N)NCCCC(N*)P(=O)(Oc1ccccc1)Oc1ccccc1; Palmitoyl = CCCCCCCCCCCCCCCC(=O)*; Ahx = NCCCCCC(=O)O

Assay [1] addresses T1, prostasin (Homo sapiens, UniProt Q16651).
T1 construct: purchased Sino Biological
The assay is described as follows: Fluorogenic protease activity assay, prostasin. The conditions noted are these: 10 μM inhibitor, Boc-Gln-Ala-Arg-NH2Mec 50 μM, N = 3. Format: biochemical. The text has this:
(§1) Recombinant human enzymes were sourced as follows: furin and matriptase (R&D Systems); prostasin (Sino Biological); trypsin and chymotrypsin (Sigma-Aldrich); factor Xa and neutrophil elastase (Merck Millipore) and proteinase-3 and cathepsin G (Elastin Products, Missouri). Fluorogenic substrates were sourced as follows: p-Glu-Arg-Thr-Lys-Arg-NH2Mec and Boc-Gln-Ala-Arg-NH2Mec (R&D Systems); Boc-Ile-Glu-Gly-Arg-NH2Mec (Bachem); Z-Gly-Gly-Arg-NH2Mec, MeOSuc-Ala-Ala-Pro-Val-NH2Mec and Suc-Ala-Ala-Pro-Phe-NH2Mec (Sigma-Aldrich). All chemicals and reagents for the synthesis of QUB-F1 were supplied by Sigma-Aldrich unless otherwise indicated. Fmoc-Lys(Boc)-SASRIN resin was sourced from Bachem. Fmoc-protected amino acids and HCTU were supplied by Merck Millipore.
(§2) Recombinant protease activities were assessed using the cognate fluorogenic substrates (final concentration 50 μM) as follows: trypsin (Z-Gly-Gly-Arg-NH2Mec), prostasin and matriptase (Boc-Gln-Ala-Arg-NH2Mec), factor Xa (Boc-Ile-Glu-Gly-Arg-NH2Mec), neutrophil elastase and proteinase 3 (MeO-Suc-Ala-Ala-Pro-Val-NH2Mec), chymotrypsin and cathepsin G (Suc-Ala-Ala-Pro-Phe-NH2Mec). The rate of substrate hydrolysis in the presence or absence of furin inhibitors was assessed by continuous recording at λex 360 nm, λem 480 nm, over a period of 60 minutes using a FLUOstar Optima microplate reader (BMG Labtech). […]

The target of assay [2] is T2, recombinant human furin (Homo sapiens, UniProt P09958).
T2 construct: purchased R&D Systems
T2 sequence (P09958 108-794): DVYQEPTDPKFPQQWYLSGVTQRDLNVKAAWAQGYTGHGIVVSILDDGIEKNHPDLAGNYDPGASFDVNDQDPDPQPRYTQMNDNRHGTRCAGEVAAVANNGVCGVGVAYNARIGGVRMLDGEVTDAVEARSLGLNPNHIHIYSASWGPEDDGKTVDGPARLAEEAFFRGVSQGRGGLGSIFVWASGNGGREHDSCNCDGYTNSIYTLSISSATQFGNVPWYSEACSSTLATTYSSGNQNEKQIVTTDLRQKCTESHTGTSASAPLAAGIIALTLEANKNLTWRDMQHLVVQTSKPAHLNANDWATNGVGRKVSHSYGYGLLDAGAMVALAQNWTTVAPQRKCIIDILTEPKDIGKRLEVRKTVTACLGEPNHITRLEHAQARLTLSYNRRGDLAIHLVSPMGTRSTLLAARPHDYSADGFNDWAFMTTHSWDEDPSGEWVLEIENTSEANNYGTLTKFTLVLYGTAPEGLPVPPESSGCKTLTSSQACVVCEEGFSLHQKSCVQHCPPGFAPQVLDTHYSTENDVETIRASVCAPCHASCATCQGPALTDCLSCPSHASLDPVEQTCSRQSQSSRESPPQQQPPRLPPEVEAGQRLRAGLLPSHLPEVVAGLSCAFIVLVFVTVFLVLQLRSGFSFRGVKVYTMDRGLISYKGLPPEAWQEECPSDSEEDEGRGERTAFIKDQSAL
The experiment in a line: Western blot with streptavidin-HRP of inhibitor-furin complex. The note with it: QUB-F1 100 μM, furin 0.4 μg, reducing and denaturing conditions. Format: binding. How it is done: Recombinant human furin (0.4 μg) was incubated with QUB-F1 (100 μM) for 45 minutes at 37°C. The sample was then denatured and reduced in Laemmli treatment buffer for 5 minutes at 95°C, resolved by SDS-PAGE, before transfer onto a nitrocellulose membrane which was blocked with a solution of Tris-buffered saline (TBS) containing 3% (w/v) bovine serum albumin and 0.1% (v/v) Tween-20. The membrane was subsequently probed with a streptavidin-Horseradish peroxidase conjugate (1:10,000) (Vector-Laboratories) in blocking solution for 1 h prior to detection by chemiluminescence (Luminata Forte Western HRP substrate (Millipore)).
Fig 1 Irreversible inhibition and visualization of recombinant human furin by QUB-F1. […] The inhibitor-proteases complex can be visualized using streptavidin-HRP, which detects the biotin reporter group on the compound.

Assay [3] addresses T3, factor Xa (Homo sapiens, UniProt P00742).
T3 construct: factor Xa and neutrophil elastase (Merck Millipore); purchased Merck Millipore
The assay is described as follows: Fluorogenic protease activity assay, factor Xa. The class given is biochemical. The note with it: 10 μM inhibitor, Boc-Ile-Glu-Gly-Arg-NH2Mec 50 μM, N = 3.
Excerpt: as §1, §2

Assay [4] concerns the target T4, matriptase (Homo sapiens, UniProt Q9Y5Y6).
T4 construct: purchased R&D Systems
T4 sequence (Q9Y5Y6 1-855): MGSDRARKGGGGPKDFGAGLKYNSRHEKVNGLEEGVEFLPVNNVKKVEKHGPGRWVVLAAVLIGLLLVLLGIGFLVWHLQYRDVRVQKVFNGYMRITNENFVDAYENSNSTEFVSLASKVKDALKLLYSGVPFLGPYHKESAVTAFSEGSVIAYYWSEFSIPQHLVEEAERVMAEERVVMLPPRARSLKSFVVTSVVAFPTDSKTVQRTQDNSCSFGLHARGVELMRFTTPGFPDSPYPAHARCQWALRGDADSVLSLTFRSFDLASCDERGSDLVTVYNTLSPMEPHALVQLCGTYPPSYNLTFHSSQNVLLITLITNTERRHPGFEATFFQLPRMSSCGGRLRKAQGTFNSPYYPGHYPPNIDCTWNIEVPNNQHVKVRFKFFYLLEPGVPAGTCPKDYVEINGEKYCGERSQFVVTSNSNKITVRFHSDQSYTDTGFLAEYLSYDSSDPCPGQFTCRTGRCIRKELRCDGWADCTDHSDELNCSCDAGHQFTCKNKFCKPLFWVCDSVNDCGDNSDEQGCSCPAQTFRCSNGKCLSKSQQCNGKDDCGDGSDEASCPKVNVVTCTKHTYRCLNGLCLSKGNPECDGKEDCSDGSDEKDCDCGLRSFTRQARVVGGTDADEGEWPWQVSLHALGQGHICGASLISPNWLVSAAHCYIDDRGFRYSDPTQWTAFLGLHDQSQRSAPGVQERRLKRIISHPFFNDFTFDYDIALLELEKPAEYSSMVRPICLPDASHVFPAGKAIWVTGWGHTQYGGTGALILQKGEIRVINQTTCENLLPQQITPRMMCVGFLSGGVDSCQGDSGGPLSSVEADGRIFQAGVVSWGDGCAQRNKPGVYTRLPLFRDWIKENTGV
The assay is described as follows: Fluorogenic protease activity assay, matriptase. Format: biochemical. The note with it: 10 μM inhibitor, Boc-Gln-Ala-Arg-NH2Mec 50 μM, N = 3.
Excerpt: as §1, §2

Assay [5] has as its target T5, neutrophil elastase (Homo sapiens, UniProt P08246).
T5 construct: purchased Merck Millipore
T5 sequence (P08246 30-267): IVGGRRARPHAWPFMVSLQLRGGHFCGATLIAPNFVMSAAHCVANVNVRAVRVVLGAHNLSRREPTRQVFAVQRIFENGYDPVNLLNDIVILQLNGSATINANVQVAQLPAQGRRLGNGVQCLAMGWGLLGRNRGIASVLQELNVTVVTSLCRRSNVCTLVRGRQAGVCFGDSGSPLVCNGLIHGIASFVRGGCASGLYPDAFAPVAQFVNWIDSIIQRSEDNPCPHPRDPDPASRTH
The assay is described as follows: Fluorogenic protease activity assay, neutrophil elastase. The class given is biochemical. The note with it: 10 μM inhibitor, MeO-Suc-Ala-Ala-Pro-Val-NH2Mec 50 μM, N = 3.
Excerpt: as §1, §2

T1 sequence (Q16651 33-343): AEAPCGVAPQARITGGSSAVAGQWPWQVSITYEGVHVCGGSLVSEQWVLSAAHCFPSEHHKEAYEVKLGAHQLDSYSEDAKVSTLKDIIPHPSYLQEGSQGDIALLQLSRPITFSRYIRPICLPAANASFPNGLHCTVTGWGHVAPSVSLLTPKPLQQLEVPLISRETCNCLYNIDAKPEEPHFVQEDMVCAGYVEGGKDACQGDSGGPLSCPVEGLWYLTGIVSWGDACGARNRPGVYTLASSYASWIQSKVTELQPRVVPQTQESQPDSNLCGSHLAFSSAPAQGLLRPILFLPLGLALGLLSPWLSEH
T3 sequence (P00742 235-488 limits assumed): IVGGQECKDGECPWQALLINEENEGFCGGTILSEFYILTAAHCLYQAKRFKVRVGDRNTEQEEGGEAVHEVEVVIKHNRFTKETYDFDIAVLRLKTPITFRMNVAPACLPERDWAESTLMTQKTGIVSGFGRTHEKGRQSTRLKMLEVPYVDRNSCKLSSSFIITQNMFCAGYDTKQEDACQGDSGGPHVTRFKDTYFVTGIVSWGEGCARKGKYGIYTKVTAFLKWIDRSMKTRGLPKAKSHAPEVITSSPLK
T3 sequence (P00742 41-179 partner limits assumed): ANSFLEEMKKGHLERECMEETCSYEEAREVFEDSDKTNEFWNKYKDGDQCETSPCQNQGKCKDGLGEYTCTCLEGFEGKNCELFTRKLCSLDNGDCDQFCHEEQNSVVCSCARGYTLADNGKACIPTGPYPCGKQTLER

For the molecule `CCCCCCCCCCCCCCCC(=O)N[C@@H](CCCCNC(=O)CCCCCNC(=O)CCCC[C@@H]1SC[C@@H]2NC(=O)N[C@@H]21)C(=O)N[C@@H](CCCNC(=N)N)C(=O)N[C@H](C(=O)N[C@@H](CCCCN)C(=O)NC(CCCNC(=N)N)P(=O)(Oc1ccccc1)Oc1ccccc1)C(C)C` (stereo partly drawn) [QUB-F1, N^α-Pal-N^ω-(Biotinyl-Ahx)-Lys-RVKR^P(OPh)2] (Palmitoyl-K([Ahx-Biotin])RVK-X1), in assay [1], the inhibition of prostasin entry was “did not”. In addition, the “irreversible binding to furin (visualized by streptavidin-HRP)” value in assay [2] is on record as “irreversibly bound”. In addition, the “inhibition of factor Xa” value in assay [3] is “did not”. In assay [4], the inhibition of matriptase result was “did not”. In addition, the “inhibition of neutrophil elastase” value in assay [5] is “Neither compound was found to inhibit”.
